Measurements published in patent US20090203667A1, “PENTADIENAMIDE DERIVATIVES” (Kyowa Hakko Kirin Co., Ltd., priority 2006, published 2009).
Where a name gives a salt, the structure may show the parent alone.

Legend:
[1] = molecular target: T1, vanilloid receptor (TRPV1) (Rattus norvegicus, UniProt O35433); assay: [3H]Resiniferatoxin ([3H]RTX) binding experiment using rat spinal cord; details: rat spinal cord membrane specimen, 37° C., 60 minutes; read-out: IC50 of [3H]RTX specific binding
T1 construct: The spinal cord was extirpated from an SPF/VAF rat; from tissue; host or cells: rat spinal cord membrane specimen (SPF/VAF rat, Charles River Laboratories Japan Inc.)
T1 sequence (O35433 whole entry): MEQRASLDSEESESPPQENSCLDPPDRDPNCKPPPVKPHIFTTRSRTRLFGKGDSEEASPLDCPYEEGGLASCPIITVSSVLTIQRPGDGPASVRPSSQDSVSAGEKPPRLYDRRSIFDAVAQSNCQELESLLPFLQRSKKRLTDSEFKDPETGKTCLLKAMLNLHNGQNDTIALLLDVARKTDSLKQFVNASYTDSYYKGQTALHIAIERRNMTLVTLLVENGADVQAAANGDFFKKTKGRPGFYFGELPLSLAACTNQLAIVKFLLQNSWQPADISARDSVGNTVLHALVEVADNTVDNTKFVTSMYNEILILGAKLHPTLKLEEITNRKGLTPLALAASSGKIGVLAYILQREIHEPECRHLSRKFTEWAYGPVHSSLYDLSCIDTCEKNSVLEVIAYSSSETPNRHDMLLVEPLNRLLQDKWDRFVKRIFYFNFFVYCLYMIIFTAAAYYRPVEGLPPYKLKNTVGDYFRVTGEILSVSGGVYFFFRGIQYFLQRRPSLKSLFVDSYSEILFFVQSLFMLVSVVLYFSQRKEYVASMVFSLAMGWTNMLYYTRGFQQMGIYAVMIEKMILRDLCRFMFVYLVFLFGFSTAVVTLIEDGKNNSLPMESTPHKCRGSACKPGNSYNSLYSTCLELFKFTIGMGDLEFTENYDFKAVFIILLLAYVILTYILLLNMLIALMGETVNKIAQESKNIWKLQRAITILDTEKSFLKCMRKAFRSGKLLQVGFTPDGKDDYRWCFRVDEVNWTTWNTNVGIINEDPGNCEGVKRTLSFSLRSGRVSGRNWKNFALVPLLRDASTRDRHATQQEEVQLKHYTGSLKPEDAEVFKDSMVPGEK
Experimental: [^3H]Resiniferatoxin ([^3H]RTX) Binding Experiment Using Rat Spinal Cord
The spinal cord was extirpated from an SPF/VAF rat (Charles River Laboratories Japan Inc.) and homogenized in an ice-cooled homogenization buffer (10 mmol/L HEPES/NaOH, 5 mmol/L KCl, 5.8 mmol/L NaCl, 2 mmol/L MgCl2, 0.75 mmol/L CaCl2, 12 mmol/L glucose, 137 mmol/L sucrose, pH 7.4). The resulting homogenate was centrifuged at 1000 g for 10 minutes at 4° C. The supernatant was centrifuged at 35000 g for 30 minutes at 4° C. The obtained precipitate was suspended in the homogenization buffer. The suspension was used as a tissue membrane specimen, and the protein concentration was determined using a protein assay staining solution (Bio-Rad Laboratories, US). The thus prepared specimen was stored at −80° C.
The known method [The Journal of Pharmacology and Experimental Therapeutics, 267: 728-733 (1993)] was modified and the modified method was performed. 400 μL of a membrane specimen solution (protein amount: about 50 μg) obtained by diluting the prepared specimen with an assay buffer (10 mmol/L HEPES/NaOH, 5 mmol/L KCl, 5.8 mmol/L NaCl, 2 mmol/L MgCl2, 0.75 mmol/L CaCl2, 12 mmol/L glucose, 137 mmol/L sucrose, 0.25 mg/mL bovine serum albumin, pH 7.4), 50 μL of a test compound solution, and 50 μL of [^3H]RTX (PerkinElmer Life Sciences Inc., US) were mixed and the mixture was incubated at 37° C. for 60 minutes. The reaction mixture was transferred on ice, and 50 μL of previously ice-cooled 2 mg/mL α1 acid glycoprotein (Sigma) was added thereto, and then, the mixture was centrifuged at 12000 g for 15 minutes at 4° C. A procedure in which 0.4 mL of the assay buffer was added to the obtained precipitate and the mixture was centrifuged at 12000 g for 15 minutes at 4° C. was performed twice. The precipitate obtained by the centrifugation was suspended in 0.5 mL of a 0.1 mol/L aqueous NaOH solution. 7 mL of Ultima Gold (Packard, US) was added to the suspension, and the radioactivity of the solution was measured using a liquid scintillation counter (LS6500: Beckman Coulter, Inc., US or TRI-CARB 2700TR: Packard, US). The [^3H]RTX binding amount in the presence of 0.1 μmol/L RTX was considered to be non-specific binding, and the specific binding was calculated by subtracting this value from the total amount of [^3H]RTX binding to the membrane specimen. Then, the replacement amount of the [^3H]RTX specific binding in the presence of the compound to the [^3H]RTX specific binding amount in the absence of the compound was calculated in percent. The IC50 value of the compound in this experiment was obtained from a logistic equation.
The logistic equation was fit to the following equation (equation 205 in the program) in the curve regression program XLfit (IDBS Inc.).
Y: Inhibition ratio X: Concentration of test compound

[2] = system: entrapment nerve injury rat; assay: Neuropathic pain inhibitory activity in entrapment nerve injury rat (von Frey pain threshold); format: in vivo; details: orally administered, dose of 20 mg/kg or less, measured after 1 hour, von Frey filaments
Text: Neuropathic Pain Inhibitory Activity of Compound in Entrapment Nerve Injury Rat
The method of Mosconi, Kruger et al. (Pain, vol. 64, pp. 37-57 (1996)) was modified partially and an entrapment nerve injury rat was produced.
By using a male Crl:CD(SD) rat, the sciatic nerve of the left hind limb was exfoliated under pentobarbital anesthesia, and the exfoliated region was covered with a polyethylene tube (trade name: Intramedic, size: PE-60, manufactured by Becton Dickinson and Company) with a length of 2 mm. On days 14 to 21 after the surgery, the rat was placed in a stainless-steel connected cage (750 mm (length)×210 mm (depth)×170 mm (height)) consisting of 5 cages connected in a row and having a mesh floor and was acclimated to the environment for at least 20 minutes, and then, the pain was evaluated.
The pain was evaluated using von Frey filaments (trade name: touch test sensory evaluator, Model number: model 58011, manufactured by Muromachi Kikai), and the results were calculated as a pain threshold. That is, by using a von Frey filament of different stimulation intensity, stimulation was given to the paw at the injured side of the entrapment nerve injury rat, and the stimulation intensity at which the paw was withdrawn was obtained. Then, the pain threshold (paw withdrawal threshold) (g) was calculated by the up down method of Dixon [Annual Review of Pharmacology and Toxicology, vol. 20, pp. 441-462 (1980)]. Incidentally, the pain threshold of a normal rat was from 10 to 12 g on an average.
In the evaluation of the test compound, a rat having a 50% pain threshold of less than 4 g was used, and the test compound was dissolved in a 0.5% aqueous methyl cellulose solution and orally administered at a dose of 5 mL/kg. After 1 hour, by using von Frey filaments, the pain threshold was measured.

melting point [°C] | SMILES | IC50 [1] [nM] | pain threshold (paw withdrawal threshold) [2]
142 to 143 | O=C(/C=C/C=C(\c1ccc(F)cc1)c1ccc(C(F)(F)F)cc1)Nc1cccc2cnccc12 [Compound 74, (2E,4Z)-5-(4-Fluorophenyl)-N-(isoquinolin-5-yl)-5-[4-(trifluoromethyl)phenyl]-2,4-pentadienamide] | < 100 | significantly increases the pain threshold
255 to 257 | O=C(/C=C/C=C(c1ccc(C(F)(F)F)cc1)c1ccc(C(F)(F)F)cc1)Nc1cncc(CO)c1 [Compound 25, (E)-N-[(5-Hydroxymethyl)pyridin-3-yl]-5,5-bis[4-(trifluoromethyl)phenyl]-2,4-pentadienamide] | < 100 | –
– | CC(C)Oc1ccc(/C(=C\C=C\C(=O)Nc2cccc3[nH]ncc23)c2ccc(C(F)(F)F)cc2)cc1 [Compound 178, (2E,4Z)-N-(1H-Indazol-4-yl)-5-(4-isopropoxyphenyl)-5-[4-(trifluoromethyl)phenyl]-2,4-pentadienamide] | < 100 | significantly increases the pain threshold
– | O=C(/C=C/C=C(\c1ccc(OC2COC2)cc1)c1ccc(C(F)(F)F)cc1)Nc1cccc2c1CC(O)C(=O)N2 (stereo not drawn) [Compound 314, (2E,4Z)-N-(3-Hydroxy-2-oxo-1,2,3,4-tetrahydroquinolin-5-yl)-5-[4-(oxetan-3-yloxy)phenyl]-5-[4-(trifluoromethyl)phenyl]-2,4-pentadienamide] | < 100 | significantly increases the pain threshold
– | O=C(/C=C/C=C(/c1ccc(C(F)(F)F)cc1)c1ccco1)Nc1cccc2cnccc12 [Compound 63, (2E,4Z)-5-(Furan-2-yl)-N-(isoquinolin-5-yl)-5-[4-(trifluoromethyl)phenyl]-2,4-pentadienamide] | – | significantly increases the pain threshold
– | CCOc1ccc(/C(=C\C=C\C(=O)Nc2cccc3c2CC(O)C(=O)N3)c2ccc(Cl)cc2)cc1 (stereo not drawn) [Compound 310, (2E,4E)-5-(4-Chlorophenyl)-5-(4-ethoxyphenyl)-N-(3-hydroxy-2-oxo-1,2,3,4-tetrahydroquinolin-5-yl)-2,4-pentadienamide] | < 100 | significantly increases the pain threshold
– | Cc1cccc(/C(=C\C=C\C(=O)Nc2cccc3c2CC(O)C(=O)N3)c2ccc(C(F)(F)F)cc2)c1 (stereo not drawn) [Compound 188, (2E,4Z)-N-(3-Hydroxy-2-oxo-1,2,3,4-tetrahydroquinolin-5-yl)-5-(3-methylphenyl)-5-[4-(trifluoromethyl)phenyl]-2,4-pentadienamide] | < 100 | significantly increases the pain threshold
– | CC(C)(C)Oc1ccc(/C(=C\C=C\C(=O)Nc2cccc3c2CC(O)C(=O)N3)c2ccc(C(F)(F)F)cc2)cc1 (stereo not drawn) [Compound 191, (2E,4Z)-5-(4-tert-Butoxyphenyl)-N-(3-hydroxy-2-oxo-1,2,3,4-tetrahydroquinolin-5-yl)-5-[4-(trifluoromethyl)phenyl]-2,4-pentadienamide] | < 100 | significantly increases the pain threshold
114 to 115 | O=C(/C=C/C=C(\c1ccccc1)c1ccc(C(F)(F)F)cc1)Nc1cccc2cnccc12 [Compound 59, (2E,4E)-N-(Isoquinolin-5-yl)-5-phenyl-5-[4-(trifluoromethyl)phenyl]-2,4-pentadienamide] | < 100 | –
– | CN(C)c1ccc(/C(=C\C=C\C(=O)Nc2cccc3c2CC(O)CN3)c2ccc(C(F)(F)F)cc2)cc1.Cl.Cl (stereo not drawn) [Compound 270, (2E,4Z)-5-[4-(N,N-Dimethylamino)phenyl]-N-(3-hydroxy-1,2,3,4-tetrahydroquinolin-5-yl)-5-[4-(trifluoromethyl)phenyl]-2,4-pentadienamide Dihydrochloride] | < 100 | significantly increases the pain threshold
164 to 166 | O=C(/C=C/C=C(c1ccc(C(F)(F)F)cc1)c1ccc(C(F)(F)F)cc1)Nc1cccc2cnccc12 [Compound 11, (E)-N-(Isoquinolin-5-yl)-5,5-bis[4-(trifluoromethyl)phenyl]-2,4-pentadienamide] | < 100 | –
– | CCOc1ccc(/C(=C\C=C\C(=O)Nc2cccc3c2CC(O)C(=O)N3)c2ccc(C(F)(F)F)cc2)cc1 (stereo not drawn) [Compound 257, (2E,4Z)-N-(3-Hydroxy-2-oxo-1,2,3,4-tetrahydroquinolin-5-yl)-5-(4-ethoxyphenyl)-5-[4-(trifluoromethyl)phenyl]-2,4-pentadienamide] | < 100 | significantly increases the pain threshold
– | CCOc1ccc(/C(=C\C=C\C(=O)Nc2cccc3c2CC(O)CN3)c2ccc(C(F)(F)F)cc2)cc1 (stereo not drawn) [Compound 240, (2E,4Z)-5-(4-Ethoxyphenyl)-N-(3-hydroxy-1,2,3,4-tetrahydroquinolin-5-yl)-5-[4-(trifluoromethyl)phenyl]-2,4-pentadienamide monohydrochloride] | < 100 | significantly increases the pain threshold
– | CC(C)Oc1ccc(/C(=C\C=C\C(=O)Nc2cccc3c2CC(O)C(=O)N3)c2ccc(C(F)(F)F)cc2)cc1 (stereo not drawn) [Compound 229, (2E,4Z)-N-(3-Hydroxy-2-oxo-1,2,3,4-tetrahydroquinolin-5-yl)-5-(4-isopropoxyphenyl)-5-[4-(trifluoromethyl)phenyl]-2,4-pentadienamide] | < 100 | significantly increases the pain threshold
118 to 119 | N#Cc1cccc(/C(=C\C=C\C(=O)Nc2cccc3cnccc23)c2ccc(C(F)(F)F)cc2)c1 [Compound 68, (2E,4Z)-5-(3-Cyanophenyl)-N-(isoquinolin-5-yl)-5-[4-(trifluoromethyl)phenyl]-2,4-pentadienamide] | < 100 | –
– | CCOc1ccc(/C(=C\C=C\C(=O)Nc2ccccc2C(O)CO)c2ccc(C(F)(F)F)cc2)cc1 (stereo not drawn) [Compound 163, (2E,4Z)-N-[2-(1,2-Dihydroxyethyl)phenyl]-5-(4-ethoxyphenyl)-5-[4-(trifluoromethyl)phenyl]-2,4-pentadienamide] | < 100 | –
249 to 251 | O=C(/C=C/C=C(c1ccc(C(F)(F)F)cc1)c1ccc(C(F)(F)F)cc1)Nc1cccc2ccc(O)cc12 [Compound 10, (E)-N-(7-Hydroxynaphthalen-1-yl)-5,5-bis[4-(trifluoromethyl)phenyl]-2,4-pentadienamide] | < 100 | –
